Assay results from ChEMBL document CHEMBL1201862, “PubChem BioAssay data set” (2004).
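Five compound concentrations were applied to cells in 96-well plates for 48 hours; endpoints were derived by simple linear interpolation of the resulting dose-response curve. GI50 marks 50% less growth.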 Activity calls are given as the source filed them. Rule as the data show it: active = GI50 up to about 1.1 µM and inactive = higher.

Experiments:
Assay in all cases: growth of human tumour cells (NCI), 48 h
[1] = system: BT-549
[2] = system: UO-31
[3] = system: UACC-62
[4] = system: HOP-92
[5] = system: UACC-257
[6] = system: HCT-116
[7] = system: SK-OV-3
[8] = system: PC-3
[9] = system: Malme-3M
[10] = system: HL-60
[11] = system: SK-MEL-2
[12] = system: MOLT-4
[13] = system: 786-0
[14] = system: K562
[15] = system: OVCAR-8
[16] = system: KM12
[17] = system: SK-MEL-5

Row | SMILES | GI50 [1] | GI50 [2] | GI50 [3] | GI50 [4] | GI50 [5] | GI50 [6] | GI50 [7] | GI50 [8] | GI50 [9] | GI50 [10] | GI50 [11] | GI50 [12] | GI50 [13] | GI50 [14] | GI50 [15] | GI50 [16] | GI50 [17]
1 | N#CC1(C#N)C2=C(CCCC2)NC(c2ccc(Br)cc2)C1(C#N)C#N (centres undefined) | 13.8 µM (inactive) | 1.46 µM (inactive) | 16.5 µM (inactive) | 4.76 µM (inactive) | 4.22 µM (inactive) | 1.84 µM (inactive) | 22.7 µM (inactive) | 13.7 µM (inactive) | 1.16 µM (inactive) | 0.286 µM (active) | 15.6 µM (inactive) | 0.384 µM (active) | 1.79 µM (inactive) | 0.762 µM (active) | 2.7 µM (inactive) | 15.1 µM (inactive) | 15.5 µM (inactive)
2 | Cc1ccc(-n2c(=O)c3nn4c(=O)n(-c5ccc(C)cc5)c(=O)c4nn3c2=O)cc1 | > 100 µM (inactive) | > 100 µM (inactive) | > 100 µM (inactive) | 45.6 µM (inactive) | > 100 µM (inactive) | > 100 µM (inactive) | > 100 µM (inactive) | > 100 µM (inactive) | > 100 µM (inactive) | > 100 µM (inactive) | > 100 µM (inactive) | > 100 µM (inactive) | > 100 µM (inactive) | > 100 µM (inactive) | > 100 µM (inactive) | > 100 µM (inactive) | > 100 µM (inactive)
3 | NC(=O)N/N=C1\CC2C3CC4C2C4C13 (centres undefined) | > 100 µM (inactive) | > 100 µM (inactive) | > 100 µM (inactive) | > 100 µM (inactive) | > 100 µM (inactive) | > 100 µM (inactive) | > 100 µM (inactive) | > 100 µM (inactive) | > 100 µM (inactive) | > 100 µM (inactive) | > 100 µM (inactive) | > 100 µM (inactive) | > 100 µM (inactive) | > 100 µM (inactive) | > 100 µM (inactive) | > 100 µM (inactive) | > 100 µM (inactive)
4 | c1ccc2c(c1)CCCN1CCc3ccccc3C21 (centres undefined) | 60.1 µM (inactive) | 30.3 µM (inactive) | 35.2 µM (inactive) | 24.9 µM (inactive) | 77.1 µM (inactive) | 38.5 µM (inactive) | 66.5 µM (inactive) | 41 µM (inactive) | > 100 µM (inactive) | 47.1 µM (inactive) | 96.6 µM (inactive) | 50.9 µM (inactive) | 80.9 µM (inactive) | 30 µM (inactive) | > 100 µM (inactive) | 45.6 µM (inactive) | 23.3 µM (inactive)
5 | CC(C)(CC1(C)NC(=O)NC1=O)OCc1ccccc1 (centres undefined) | > 100 µM (inactive) | > 100 µM (inactive) | > 100 µM (inactive) | > 100 µM (inactive) | > 100 µM (inactive) | > 100 µM (inactive) | > 100 µM (inactive) | > 100 µM (inactive) | > 100 µM (inactive) | < 0.01 µM (active) | > 100 µM (inactive) | – | > 100 µM (inactive) | > 100 µM (inactive) | > 100 µM (inactive) | > 100 µM (inactive) | > 100 µM (inactive)
6 | CN(CC(=O)N1CC(CCl)c2ccc([N+](=O)[O-])cc21)CC(=O)N1CC(CCl)c2ccc([N+](=O)[O-])cc21 (centres undefined) | > 100 µM (inactive) | > 100 µM (inactive) | > 100 µM (inactive) | > 100 µM (inactive) | > 100 µM (inactive) | > 100 µM (inactive) | > 100 µM (inactive) | > 100 µM (inactive) | > 100 µM (inactive) | > 100 µM (inactive) | 97.9 µM (inactive) | > 100 µM (inactive) | > 100 µM (inactive) | > 100 µM (inactive) | > 100 µM (inactive) | > 100 µM (inactive) | 98.9 µM (inactive)
7 | COc1ccc(/C=N/NC(=O)c2ccc(O)c(CN(C)C)c2)cc1 | > 100 µM (inactive) | > 100 µM (inactive) | > 100 µM (inactive) | 57 µM (inactive) | > 100 µM (inactive) | > 100 µM (inactive) | > 100 µM (inactive) | > 100 µM (inactive) | > 100 µM (inactive) | > 100 µM (inactive) | > 100 µM (inactive) | > 100 µM (inactive) | > 100 µM (inactive) | > 100 µM (inactive) | > 100 µM (inactive) | > 100 µM (inactive) | > 100 µM (inactive)
8 | ClC1=NN=C(c2c[nH]c3ccccc23)CC1NCc1ccccc1 (centres undefined) | > 100 µM (inactive) | > 100 µM (inactive) | > 100 µM (inactive) | > 100 µM (inactive) | > 100 µM (inactive) | > 100 µM (inactive) | > 100 µM (inactive) | > 100 µM (inactive) | > 100 µM (inactive) | > 100 µM (inactive) | > 100 µM (inactive) | > 100 µM (inactive) | > 100 µM (inactive) | > 100 µM (inactive) | > 100 µM (inactive) | > 100 µM (inactive) | > 100 µM (inactive)
9 | O=C1C(Cl)C(c2cc3cc(Br)ccc3nc2Cl)N1c1c(Cl)cccc1Cl (centres undefined) | 10.2 µM (inactive) | 1.3 µM (inactive) | 17.4 µM (inactive) | 9.79 µM (inactive) | 16.5 µM (inactive) | 9.12 µM (inactive) | > 25 µM (inactive) | 20 µM (inactive) | > 25 µM (inactive) | 8.24 µM (inactive) | > 25 µM (inactive) | 4.9 µM (inactive) | 12.4 µM (inactive) | 7.01 µM (inactive) | 10.8 µM (inactive) | > 25 µM (inactive) | 12.5 µM (inactive)
10 | O=C(c1cccc(OCc2ccccc2)c1OCc1ccccc1)N1CCSC1=S | 29.5 µM (inactive) | 10.6 µM (inactive) | 19.2 µM (inactive) | 18.1 µM (inactive) | 28.5 µM (inactive) | 21.4 µM (inactive) | 30.1 µM (inactive) | 21 µM (inactive) | 23.6 µM (inactive) | 5.92 µM (inactive) | 34.6 µM (inactive) | 12.6 µM (inactive) | 42.8 µM (inactive) | 9.35 µM (inactive) | 21.8 µM (inactive) | 5.13 µM (inactive) | 14 µM (inactive)
11 | Cc1ccc2c(c1C)CC1(Cc3c(ccc4c3CCC4)C1=O)C2=O (centres undefined) | > 100 µM (inactive) | > 100 µM (inactive) | > 100 µM (inactive) | > 100 µM (inactive) | > 100 µM (inactive) | > 100 µM (inactive) | > 100 µM (inactive) | 62.2 µM (inactive) | > 100 µM (inactive) | > 100 µM (inactive) | > 100 µM (inactive) | > 100 µM (inactive) | > 100 µM (inactive) | > 100 µM (inactive) | > 100 µM (inactive) | > 100 µM (inactive) | > 100 µM (inactive)
12 | COC(=O)c1ccc(C)cc1C1CN=NC12Cc1c(C)cccc1C2=O (centres undefined) | 75 µM (inactive) | 42.9 µM (inactive) | 28.4 µM (inactive) | 38.6 µM (inactive) | 49.7 µM (inactive) | 25.6 µM (inactive) | 94.8 µM (inactive) | 40.2 µM (inactive) | 58.2 µM (inactive) | 28.4 µM (inactive) | 43.5 µM (inactive) | 41.7 µM (inactive) | 52.1 µM (inactive) | 47.5 µM (inactive) | 60.1 µM (inactive) | 32.1 µM (inactive) | 30 µM (inactive)
13 | c1ccc(-c2nnc(-c3ccccn3)c3c2C[C@@H]2C[C@@H]4Cc5c(-c6ccccn6)nnc(-c6ccccn6)c5[C@@H]4[C@H]32)nc1 | 41.2 µM (inactive) | 21.7 µM (inactive) | 41.7 µM (inactive) | 60.4 µM (inactive) | 66.7 µM (inactive) | 39.8 µM (inactive) | > 100 µM (inactive) | 41.5 µM (inactive) | 75.7 µM (inactive) | 24.7 µM (inactive) | 51.1 µM (inactive) | 33.2 µM (inactive) | 33.7 µM (inactive) | 18.3 µM (inactive) | 36.8 µM (inactive) | 51.2 µM (inactive) | 27.8 µM (inactive)
14 | Cc1cc(C)c2c(n1)S(=O)(=O)N(CCCN1CCN(c3cccc(C(F)(F)F)c3)CC1)C(C(=O)c1ccc(Cl)cc1)=C2O | 6.1 µM (inactive) | 1.33 µM (inactive) | 4.74 µM (inactive) | 2.5 µM (inactive) | 2.31 µM (inactive) | 2.81 µM (inactive) | 5.81 µM (inactive) | 2.88 µM (inactive) | 3.27 µM (inactive) | 1.87 µM (inactive) | 3.91 µM (inactive) | 0.418 µM (active) | 2.47 µM (inactive) | 2.2 µM (inactive) | 3.83 µM (inactive) | 3.58 µM (inactive) | 2.22 µM (inactive)
15 | COc1cc(C(O)CCBr)c(OC)cc1C (centres undefined) | 23 µM (inactive) | 26.3 µM (inactive) | 14.6 µM (inactive) | 23.6 µM (inactive) | 27.7 µM (inactive) | 3.93 µM (inactive) | 35.3 µM (inactive) | 6.65 µM (inactive) | 22.5 µM (inactive) | > 24.7 µM (inactive) | 16 µM (inactive) | – | 8.32 µM (inactive) | 3.61 µM (inactive) | 6.97 µM (inactive) | 29.9 µM (inactive) | 6.18 µM (inactive)
16 | CC1(C)CC(C2=NCCO2)CC(C)(C)N1 | > 100 µM (inactive) | > 100 µM (inactive) | > 100 µM (inactive) | > 100 µM (inactive) | > 100 µM (inactive) | > 100 µM (inactive) | > 100 µM (inactive) | > 100 µM (inactive) | > 100 µM (inactive) | > 100 µM (inactive) | > 100 µM (inactive) | > 100 µM (inactive) | > 100 µM (inactive) | > 100 µM (inactive) | > 100 µM (inactive) | – | > 100 µM (inactive)
